In experiment [1] the test system is Zebrafish tremblor mutant. As to the kind of experiment: Zebrafish screening: soaking. It counts as in vivo. Particulars: for Soaking: % Rescued: Table 1, tremblor mutants, 20 μM; for Rescue percent: Table 2, tremblor mutant soaked in 20 μM test compounds. Here is the method: (§1) We screened our above mention library by using tremblor mutants Zebrafish embryos. […] Compounds were screened for their ability to suppress cardiac fibrillation and/or restore rhythmic synchronized contraction. Briefly, we treated the embryo by soaking in 20 μM solution or injecting compounds after 24 hours fertilization and observed the phenotype after 48 hours. Further, we determined the structure-activity relationship (SAR) between the active compound's structures and the ability to suppress cardiac fibrillation and/or restore rhythmic synchronized contraction.
Zebrafish tremblor mutant eggs were collected after fertilization, and arrayed in 24-well plates (20 twenty embryos/well) in 500 μL buffer. After 24 hour fertilization in 29° C., 20 μM testing compound was added and using E3 buffer as background control. After 48 hour fertilization in 29° C., phenotypic changes were observed using a high magnification dissecting microscope.

For experiment [2], the system named is Zebrafish tremblor mutant. As to the kind of experiment: Zebrafish screening: injection into tremblor mutants. It counts as in vivo. Particulars: for Injection into tremblor Mutants: % Rescued: Table 1; for Average rescue ratio: Table 4, over all screens. How it is done: as §1
Zebrafish tremblor mutant eggs were collected at 1 cell stages. 1 nL of compound in Daneu's buffer were injected into the embryo. After 24 hours the embryo was arrayed in 24-well plates (20 twenty embryos/well) in 500 μL buffer. After 48 hour fertilization in 29° C., phenotypic changes were observed using a high magnification dissecting microscope.

The subject of experiment [3] is Zebrafish embryo injected with morpholino to NCX1h. As to the kind of experiment: Zebrafish screening: injection with morpholino to NCX1h. The settings on record: for Injection with Morpholino: % Rescued: Table 1; for Rescue percent: Table 3, morpholino mutants. It counts as in vivo. Here is the method: as §1
Zebrafish eggs were collected at 1 cell stages. 1 nL of compound in Daneu's buffer and 1 nL of morpholino (1 mM) to NCX1h was injected into the embryo. After 24 hours the embryo was arrayed in 24-well plates (20 twenty embryos/well) in 500 μL buffer. After 48 hour fertilization in 29° C., phenotypic changes were observed using a high magnification dissecting microscope.

Another experiment has as its system VDAC2. In words: Affinity bead pull down from zebrafish embryo lysate with mass spectrometry. The settings on record: zebrafish embryonic lysate, affinity agarose beads. It counts as binding. Here is the method: For pull down assays mono-N-Boc protected 2,2′-(ethylenedioxy)bis(ethylamine) was attached to the carboxylic ester of efsevin and its derivatives through the amide bond. After removal of the Boc group using TFA, the primary amine was coupled to the carboxylic acid of Affi-Gel 10 Gel (Biorad). Two-day-old zebrafish embryos were deyolked by centrifugation before being lysed with Rubinfeld's lysis buffer (Rubinfeld et al., 1993, Science 262, 1731-1734). The lysate was precleaned by incubation with Affi-Gel 10 Gel to eliminate non-specific binding. Precleaned lysate was incubated with affinity beads overnight. Proteins were eluted from the affinity beads and separated on SDS-PAGE. Protein bands of interest were excised. Gel plugs were dehydrated in acetonitrile (ACN) and dried completely in a Speedvac. Samples were reduced and alkylated with 10 mM dithiotreitol and 10 mM TCEP solution in 50 mM NH4HCO3 (30 min at 56° C.) and 100 mM iodoacetamide (45 min in dark), respectively. Gel plugs were washed with 50 mM NH4HCO3, dehydrated with ACN, and dried down in a Speedvac. Gel pieces were then swollen in digestion buffer containing 50 mM NH4HCO3, and 20.0 ng/μL of chymotrypsin (25° C., overnight). Peptides were extracted with 0.1% TFA in 50% ACN solution, dried down and resuspended in LC buffer A (0.1% formic acid, 2% ACN).
Extracted peptides were analyzed by nano-flow LC/MS/MS on a Thermo Orbitrap with dedicated Eksigent nanopump using a reversed phase column (New Objective). The flow rate was 200 nL/min for separation: mobile phase A contained 0.1% formic acid, 2% ACN in water, and mobile phase B contained 0.1% formic acid, 20% water in ACN. The gradient used for analyses was linear from 5% B to 50% B over 60 min, then to 95% B over 15 min, and finally keeping constant 95% B for 10 min. Spectra were acquired in data-dependent mode with dynamic exclusion where the instrument selects the top six most abundant ions in the parent spectra for fragmentation. […]

The subject of the next experiment is NCX1hMO injected embryos. As to the kind of experiment: Restoration of coordinated cardiac contractions in NCX1h morpholino embryos. It counts as in vivo, zebrafish. Particulars: linker-attached compounds. How it is done: (§2) VDAC2 mRNA and morpholino antisense oligos (5′-[…]-3′) (Genetools) (SEQ ID NO: 9) were injected into one-cell stage embryos collected from crosses of tre^tc318 heterozygotes. Cardiac performance was analyzed by visual inspection on 1 dpf. The tre mutant embryos were identified either by observing the fibrillation phenotype at 2-3 dpf or by genotyping as previously described (Langenbacher et al., 2005).
(§3) Chemicals from a synthetic library (Castellano et al., 2007, J Am Chem Soc 129, 5843-5845; Choi et al., 2011, Development 138, 1173-1181; Cruz et al., 2011, Proc Natl Acad Sci USA 108, 6769-6774) and from Biomol International LP were screened for their ability to partially or completely restore persistent heartbeat in tre embryos. 12 embryos collected from crosses of tre^tc318 heterozygotes were raised in the presence of individual compounds at a concentration of 10 μM from 4 hpf (Choi et al., 2011). Cardiac function was analyzed by visual inspection at 1 and 2 dpf. The hearts of tre^tc318 embryos manifest a chaotic movement resembling cardiac fibrillation with intermittent contractions in rare occasion (Ebert et al., 2005; Langenbacher et al., 2005). Compounds that elicit persistent coordinated cardiac contractions were validated on large number of tre mutant embryos and NCX1h morphants (>500 embryos).

Experiment [4] deals with zebrafish tremblor (tre) embryos. In words: Restoration of coordinated cardiac contractions in tre embryos. It counts as in vivo. Particulars: tremblor embryos. How it is done:
as §2, §3

[5] abbreviates: Table 4, injection into tremblor mutants.

For `CCOC(=O)C1=CCN(S(=O)(=O)c2ccc(C)cc2)C1c1ccc(C(=O)OCC)cc1` (racemic) [F7-I-A06], in experiment [1], the “Soaking: % Rescued” value is given as 17/88% and the Rescue percent is 88%.
On the same counts, the results for `CCOC(=O)C1=CCN(S(=O)(=O)c2ccc(C)cc2)C1c1ccc(F)cc1` (centres unmarked) [F7-I-B04] are 8/75% and 75%.
For the compound `CCOC(=O)C1=CCN(S(=O)(=O)c2ccc(F)cc2)C1c1cccc(C)c1` (centres unmarked) [F7-I-F09], in experiment [2], the “Injection into tremblor Mutants: % Rescued” value is 15/87% and the Average rescue ratio was determined as 87%. Further, in experiment [2] (setting [5]), the “Screen 1 Rescue percent” value was determined as 87%. In addition, in experiment [3], the “Injection with Morpholino: % Rescued” value is recorded as 8/75% and the Rescue percent came to 75%.
Consider `CCOC(=O)C1=CCN(S(=O)(=O)c2ccccc2F)C1c1ccc(C)cc1` (centres unmarked) [Formula Io], for which the “Injection with Morpholino: % Rescued” value in experiment [3] is 8/75%.
As for `CCOC(=O)C1=CCN(S(=O)(=O)c2ccc(F)cc2)C1c1ccc(Cl)c(Cl)c1` (centres unmarked) [F7-I-F05], in experiment [2], the “Injection into tremblor Mutants: % Rescued” value is 10/80% and the Average rescue ratio was found to be 80%. The “Screen 1 Rescue percent” value in experiment [2] (setting [5]) came out at 80%. In experiment [3], the “Injection with Morpholino: % Rescued” value was 14/50% and the Rescue percent is on record as 50%.
For the compound `CCOC(=O)C1=CCN(S(=O)(=O)c2ccc(F)cc2)C1c1ccc(F)cc1` (racemic) [F7-II-A01], in experiment [2], the “Injection into tremblor Mutants: % Rescued” value was 27/74% and the Average rescue ratio is listed as 74%. Also, the “Screen 1 Rescue percent” value in experiment [2] (setting [5]) amounted to 74%. In addition, in experiment [3], the “Injection with Morpholino: % Rescued” value is reported as 8/38% and the Rescue percent was determined as 38%.
Regarding `CCOC(=O)C1=CCN(S(=O)(=O)c2ccccc2Br)C1c1ccc(Cl)cc1` (centres unmarked) [F7-I-G09], in experiment [2], the “Injection into tremblor Mutants: % Rescued” value is on record as 23/87% and the Average rescue ratio is on record as 78%. The “Screen 1 Rescue percent” value in experiment [2] (setting [5]) was 78%. Moreover, in experiment [3], the “Injection with Morpholino: % Rescued” value was 6/67% and the Rescue percent was 67%.
In the case of `CCOC(=O)C1=CCN(S(=O)(=O)c2ccccc2F)C1c1ccc(Cl)cc1` (centres unmarked) [F7-I-H01], in experiment [2], the “Injection into tremblor Mutants: % Rescued” value is 12/83% and the Average rescue ratio stood at 83%. In addition, in experiment [2] (setting [5]), the “Screen 1 Rescue percent” value was determined as 83%. In experiment [3], the “Injection with Morpholino: % Rescued” value is given as 8/63% and the Rescue percent turned out to be 63%.
Consider `CCOC(=O)C1=CCN(S(=O)(=O)c2ccccc2F)C1c1ccc(F)cc1` (centres unmarked) [Formula In], for which, in experiment [3], the “Injection with Morpholino: % Rescued” value is 8/88%.
On to `CCOC(=O)C1=CCN(S(=O)(=O)c2ccc(Cl)cc2)C1c1ccccc1` (racemic) [F7-II-A11], for which, in experiment [2], the “Injection into tremblor Mutants: % Rescued” value was 30/73% and the Average rescue ratio is recorded as 73%. In experiment [2] (setting [5]), the “Screen 1 Rescue percent” value was determined as 73%. In addition, in experiment [3], the “Injection with Morpholino: % Rescued” value is 6/0% and the Rescue percent is 0%.
In experiment [1], `Cc1ccc(S(=O)(=O)N2CC=C(C(=O)O)C2c2ccccc2)cc1` (centres unmarked) [F7 acid] yielded a Rescue percent of 21%.
On the same count and under the same terms, next, `CCOC(=O)C1=CCN(S(=O)(=O)c2ccc(C)cc2)C1c1ccccc1` (racemic) [F7]: 72%.
Consider `CCOC(=O)C1=CCN(S(=O)(=O)c2cccc(Cl)c2)C1c1cccc(Cl)c1` (centres unmarked) [F7-I-F11], for which, in experiment [2], the “Injection into tremblor Mutants: % Rescued” value is reported as 28/79% and the Average rescue ratio is recorded as 79%. For the same compound, in experiment [2] (setting [5]), the “Screen 1 Rescue percent” value is recorded as 80% and the “Screen 2 Rescue percent” value was 78%. Further, in experiment [3], the “Injection with Morpholino: % Rescued” value is recorded as 8/88% and the Rescue percent was 88%.
With `CCOC(=O)C1=CCN(S(=O)(=O)c2ccccc2C)C1c1ccc(F)cc1` (racemic) [F7-I-G04], in experiment [2], the “Injection into tremblor Mutants: % Rescued” value was 26/85% and the Average rescue ratio stood at 85%. Moreover, in experiment [2] (setting [5]), the “Screen 1 Rescue percent” value was found to be 78% and the “Screen 2 Rescue percent” value was 88%. In experiment [3], the “Injection with Morpholino: % Rescued” value is given as 8/75% and the Rescue percent is 75%.
As for `CCOC(=O)C1=CCN(S(=O)(=O)c2ccc(Cl)cc2)C1c1ccc(Br)cc1` (racemic) [F7-I-H05], in experiment [2], the “Injection into tremblor Mutants: % Rescued” value is listed as 43/74% and the Average rescue ratio stood at 74%. Besides, in experiment [2] (setting [5]), the “Screen 1 Rescue percent” value stood at 86%, the “Screen 2 Rescue percent” value was found to be 69% and the “Screen 3 Rescue percent” value is on record as 75%. In addition, in experiment [3], the “Injection with Morpholino: % Rescued” value is 8/88% and the Rescue percent came to 88%.
Consider `CCOC(=O)C1=CCN(S(=O)(=O)c2ccc(C)cc2)C1c1cccc(C)c1` (racemic) [F7-I-B12], for which, in experiment [1], the “Soaking: % Rescued” value is 19/78% and the Rescue percent was 78%.
With `CCOC(=O)C1=CCN(S(=O)(=O)c2ccc(F)cc2)C1c1ccccc1` (racemic) [F7-II-B01], in experiment [2], the “Injection into tremblor Mutants: % Rescued” value is recorded as 21/81% and the Average rescue ratio was 81%. In experiment [2] (setting [5]), the “Screen 1 Rescue percent” value is listed as 91% and the “Screen 2 Rescue percent” value was found to be 79%. Further, in experiment [3], the “Injection with Morpholino: % Rescued” value is on record as 6/67% and the Rescue percent amounted to 67%.
`CCOC(=O)C1=CCN(S(=O)(=O)c2cccc(F)c2)C1c1ccc(F)cc1` (racemic) [OK-C125]: the “pull down of the 32 kD band (VDAC2)” value with VDAC2 is on record as “pulled down”. In the experiment on NCX1hMO injected embryos, the “restoration of rhythmic contractions in NCX1hMO injected embryos” value was “retained their ability to restore rhythmic contractions”. For the same compound, in experiment [4], the “restoration of rhythmic contractions in tremblor embryos” value is given as “restored rhythmic contractions in the majority of tremblor embryos”.
On to `CCOC(=O)C1=CCN(S(C)(=O)=O)C1c1ccccc1` (racemic) [OK-C19], for which, in the experiment with VDAC2, the “pull down of the 32 kD band (VDAC2)” value was “not detected”. For the same compound, in the experiment with NCX1hMO injected embryos, the “restoration of rhythmic contractions in NCX1hMO injected embryos” value is on record as “unable to induce rhythmic contraction”. In experiment [4], the “restoration of rhythmic contractions in tremblor embryos” value is recorded as “failed to rescue the tremblor phenotype”.
`CCOC(=O)C1=CCN(S(=O)(=O)c2cccc(F)c2)C1c1ccc(F)cc1` (centres unmarked) [F7-II-B12]: in experiment [2], the “Injection into tremblor Mutants: % Rescued” value was 21/76% and the Average rescue ratio is given as 76%. Further, the “Screen 1 Rescue percent” value in experiment [2] (setting [5]) was 76%.
For `CCOC(=O)C1=CCN(S(=O)(=O)c2ccc(Cl)cc2)C1c1ccc(Cl)cc1` (centres unmarked) [F7-I-B07], in experiment [1], the “Soaking: % Rescued” value is 18/80% and the Rescue percent is 80%.
Take `CCOC(=O)C1=CCN(S(=O)(=O)c2ccccc2F)C1c1ccc(Br)cc1` (racemic) [Formula Im]: in experiment [3], the “Injection with Morpholino: % Rescued” value is reported as 8/88%.

Source of the values: patent US12378193B2, “Anti-arrhythmicity agents” (The Regents of the University of California, priority 2014, dated 2025).
